What is called ED50 is the dose that gives a 50% effect, or the effect in half of the subjects.

The test deals with passive cutaneous anaphylaxis. The experiment in a line: Inhibition of passive cutaneous anaphylaxis (PCA test). The class given is in vivo, rats (Wistar). The conditions noted are these: Rattus norvegicus, po; rats, p.o., 10 minutes before ovoalbumin challenge i.p. The method, then: For example, the substances have an inhibiting action on the release of endogenic mediators from mast cells or basophilic leucocytes which leads to allergic reactions. The doses to be used vary, of course, depending on the nature of the substance used, on the mode of administration and on the condition to be treated. In general, however, satisfactory results are achieved in animal experiments with doses of from 0.05 to 75 mg. per kg of body weight.
Description of the test method to determine the inhibition of passive cutaneous anaphylaxis (PCA test, see Arch.int. pharmacology 252 (1981) 316-326).
To prepare the IgE-antiovoalbumin serum, used in the test, by the method of Mota (Immunology 7, (1964) 681) and J. Goose (Immunology 16 (1969) 749), male Wistar rats of 200-250 g. body weight were sensitised by subcutaneous injection of 1 mg. of ovoalbumin and 1 ml. of Bordatella pertussis suspension ("Vaxicoq" Merieux 3.10^10 organisms/ml.). After 14 days, the animals are exsanguinated and the blood is centrifuged. The antiserum thus obtained is stored at […].
Non-sensitised rats are injected, in each case, with 0.1 ml. of antiserum into the skin at four different places on their shaven backs. After 72 hours, a solution of the test compound or, for comparison, only the solvent, is administered orally, and 10 minutes later, 5 mg. of ovoalbumin and 5 mg. of blue dyestuff (Evans blue) in 0.9% strength NaCl solution are administered intraperitoneally. After 30 minutes, the animals are sacrificed and the diameters of the blue spots formed at the sites injected with antiserum are measured. The inhibiting effect of the test substance is determined from the size of the blue spots which appear.
The example numbers given for the compounds of the formula I relate to the preparation Examples below.

Molecules are shown by their SMILES.

`O=c1cc(-c2ccccc2)n(-c2ccccc2)n1CCCN1CCN(c2ccccn2)CC1` [Example 1, 1,5-Diphenyl-2-{3-[4-(2-pyridyl)-piperazin-1-yl]-propyl}-pyrazolin-3-one] returned an ED50 of 0.8 mg/kg.

Turning to `O=c1cc(-c2ccc(Cl)cc2)n(-c2ccccc2)n1CCCN1CCN(c2ccccn2)CC1` [Example 13], it took a dose of 8.5 mg/kg to reach the 50% effect level (ED50). Next, `O=c1cc(-c2ccccc2)n(-c2ccccc2)n1CCCN1CCN(c2ccc(F)cc2)CC1` [Example 22]: 9.8 mg/kg. Next, `Cc1ccnc(N2CCN(CCCn3c(=O)cc(-c4ccccc4)n3-c3ccccc3)CC2)c1` [Example 27]: 8.2 mg/kg.

(Values after patent publication US4442102A, “1,5-Diphenylpyrazolin-3-one compounds, process and intermediates for preparation thereof and pharmaceutical compositions containing same” (Kali-Chemie Pharma GmbH, priority 1981, dated 1984).)
